Earlier results in article PMC11238383, “A review on the cultivation, bioactive compounds, health-promoting factors and clinical trials of medicinal mushrooms Taiwanofungus camphoratus, Inonotus obliquus and Tropicoporus linteus” (Fungal Biology and Biotechnology, 2024).
In brackets after ≈: the same amount, converted by molar mass.

Legend:
H1264 = test system: H1264; set-up: method as in Baek et al. [203]; details: ref Baek et al. [203]
H1299 = test system: H1299; set-up: method as in Baek et al. [203]; details: ref Baek et al. [203]
Calu-6 = test system: Calu-6; set-up: method as in Baek et al. [203]; details: ref Baek et al. [203]
C2C12 cells [1] = test system: C2C12 cells; set-up: method as in Kuo et al. [174]; details: ref Kuo et al. [174]
[2] = test system: Streptozotocin-induced diabetic C57BL/6J mice; set-up: method as in Kuo et al. [178]; details: ref Kuo et al. [178]
C57BL/6J mice = details: 40 mg/kg/day versus Metformin 300 mg/kg/day; ref [174]
[3] = test system: Hepatitis C virus (HCV) protease; set-up: method as in My et al. [190]; details: ref My et al. [190]
[4] = test system: Oxidative stress-induced HepG2 cells; set-up: method as in Kumar et al. [180]; details: pretreatment, after 24 h; ref Kumar et al. [180]
[5] = test system: Obesity-induced Wistar rats; set-up: method as in Chen et al. [181]; details: ref Chen et al. [181]
breast cancer cells = test system: breast cancer cells; set-up: method as in PMID 25656647; details: ref [71]
[6] = test system: Chronic alcohol-induced liver disease in C57BL/6J (B6) mice; set-up: method as in Chang et al. [182]; details: ref Chang et al. [182]
C2C12 cells [7] = test system: C2C12 cells; set-up: method as in Kuo et al. [177]; details: in vitro; ref Kuo et al. [177]
[8] = test system: Streptozotocin-induced diabetic C57BL/6J mice; set-up: method as in Kuo et al. [177]; details: in vivo; ref Kuo et al. [177]
[9] = test system: High-fat diet-induced C57BL/6J mice; set-up: method as in Kuo et al. [178]; details: ref Kuo et al. [178]
[10] = test system: Ultraviolet B-irradiated BALB/cAnN.Cg-Foxn1nu/CrlNarl hairless mice; set-up: method as in Kuo et al. [184]; details: topical 25 and 100 μM; ref Kuo et al. [184]
[11] = test system: MCF7, MDA-MB-231, T24 and J82 cells; set-up: method as in Lu et al. [232]; details: ref Lu et al. [232]
3CL protease = test system: 3CL protease; set-up: method as in Li et al. [35], [38]; details: ref Li et al. [35], [38]
[12] = test system: Severe acute respiratory syndrome coronavirus 2 (SARS-CoV-2) virus-infected HepG2 cells; set-up: method as in Li et al. [35], [38]; details: ref Li et al. [35], [38]
[13] = test system: Oleic and palmitic acids (O/P) lipid accumulation-induced HepG2 cells; set-up: method as in Chiu et al. [138]; details: ref Chiu et al. [138]
aldose reductase = test system: aldose reductase; set-up: method as in Lee et al. [136]; details: ref Lee et al. [136]
[14] = ref Lee et al. [226]
H1N1 neuraminidase = details: ref [13]
Influenza A H1N1 virus = test system: Influenza A H1N1 virus; set-up: method as in Hwang et al. [13]; details: 10 uM; ref Hwang et al. [13]
[15] = test system: LPS-stimulated RAW264.7 cells; set-up: method as in Huang et al. [212], [243]; details: ref Huang et al. [212], [243]
[16] = test system: Streptozotocin-induced diabetic C57BL/6J mice; set-up: method as in Lin et al. [176]; details: ref Lin et al. [176]
[17] = test system: High-fat diet-induced C57BL/6J mice; set-up: method as in Lin et al. [175]; details: ref Lin et al. [175]
Chang liver cells = test system: Chang liver cells; set-up: method as in Parfenov et al. [216]; details: I. obliquus; 10^−5 and 10^−3 g/L; ref Parfenov et al. [216]
[18] = test system: Carbon tetrachloride (CCl4) liver damage induced-Sprague Dawley rats; set-up: method as in Parfenov et al. [216]; details: I. obliquus; ref Parfenov et al. [216]

CC(C)=CCC[C@@H](C=O)[C@H]1CC[C@@]2(C)C3=C(CC[C@]12C)[C@@]1(C)CC[C@H](O)C(C)(C)[C@@H]1CC3 [3β-hydroxylanosta-8,24-dien-21-al]
IC50 (H1264): 90.9 µg/mL (≈ 206 µM) | IC50 (H1299): 128.0 µg/mL (≈ 290 µM) | IC50 (Calu-6): 75.1 µg/mL (≈ 170 µM)

C=C(CC[C@@H](C)[C@H]1CC[C@H]2C3=C(C(=O)C[C@]12C)[C@@]1(C)CC[C@@H](O)[C@](C)(O)[C@@H]1C[C@@H]3O)C(C)C(=O)O (some centres unmarked) [Antcin K]
GLUT4 and phospho-Akt expression (C2C12 cells [1]): Enhance membrane glucose transporter 4 (GLUT4) and phosphor-Akt expressions | FAS, CPT-1a, PPARα expression [2]: Fatty acid synthase (FAS) expression levels declined while hepatic expression levels of carnitine palmitoyl transferase 1a (CPT-1a) and peroxisome proliferator-activated receptor α (PPARα) rose | antihyperglycemic effect (C57BL/6J mice): comparable to Metformin

CC(C)=CCOc1ccc(C2=C(CC(C)C)C(=O)OC2=O)cc1 [Antrodin A]
half-maximal inhibitory concentration (IC50) [3]: Antrodins A to E, except antrodin B, exhibited potent inhibitory effects against the HCV protease, with Antrodin A having the highest potency with a half-maximal inhibitory concentration (IC50) value of 0.9 µg/mL

COC1=C(OC)[C@H](O)[C@H](C/C=C(\C)CC/C=C(\C)CCC=C(C)C)[C@@H](C)C1=O [Antroquinonol, antroquinonol]
rise in ALT and AST caused by ethanol [4]: Antroquinonol pretreatment considerably and dose-dependently decreased the rise in ALT and AST caused by ethanol after 24 h in HepG2 cells | hepatoprotective effect [5]: Exerts hepatoprotective effects by inhibiting hepatic lipid accumulation | migration and invasion (breast cancer cells): inhibit the migration and invasion of breast cancer cells

CC(C)[C@@H](C)/C=C/[C@@H](C)[C@H]1CC[C@H]2C3=CCC4C[C@@H](O)CC[C@]4(C)C3=CC[C@]12C (some centres unmarked) [Antrosterol]
hepatoprotective findings [6]: Reduction in serum/hepatic lipids, rise in output of fecal lipid/bile-acid output, amplified hepatic antioxidant activities, reduced serum alcohol level, decrease liver inflammation, fibrosis, serum AST/ALT and TNF-α/IL-1β

C=C(CC[C@@H](C(=O)O)[C@H]1CC[C@@]2(C)C3=CC[C@H]4C(C)(C)[C@@H](O)CC[C@]4(C)C3=CC[C@]12C)C(C)C [Dehydroeburicoic acid]
GLUT4 expression (C2C12 cells [7]): Higher expression of GLUT4 | decrease in blood glucose level [8]: 43.6–46.5%

CC(C)[C@@H](C)/C=C/[C@@H](C)[C@H]1CC[C@H]2C3=CCC4C[C@@H](O)CC[C@]4(C)C3=CC[C@]12C (stereo partly drawn) [Ergostatrien-3β-ol]
visceral adipocyte size, hepatic ballooning [9]: Reduced visceral adipocyte size and induced hepatic ballooning degeneration | MMP-1, IL-6, iNOS, NF-κB in skin [10]: Significant inhibition of metalloproteinase-1 (MMP-1), IL-6, iNOS and NF-κB in skin

CC(=O)/C=C(O)/C=C/c1ccc(O)c(O)c1 [Hispolon, hispolon]
suppression of cancer cells [11]: Suppressed p53 mutant (MDA-MB-231, T24, and J82) and wild-type (MCF7) cells regardless of p53 status Apoptosis characterized by chromatin condensation and poly (ADP-ribose) polymerase (PARP) increase

O=c1cc(O)cc([C@H]2c3c(cc(/C=C/c4ccc(O)c(O)c4)oc3=O)O[C@@H]2c2ccc(O)c(O)c2)o1 [Hypholomine B, hypholomine B]
3CL protease (3CL protease): Inhibition of 3CL protease | ACE2 gene expression [12]: Reduced the expression of angiotensin-converting enzyme 2 (ACE2) gene | lipid accumulation [13]: Significant reduction in lipid accumulation | aldose reductase inhibition (aldose reductase): capable of inhibiting aldose reductase

CC1=CC(=O)/C(=C/c2ccc(O)c(O)c2)O1 [Inotilone, inotilone]
antioxidant activity [14]: Potent antioxidant activity, with higher antioxidant activity than BHA and Trolox in FRAP assay | IC50 (H1N1 neuraminidase): 61 µM | neuraminidase activity (H1N1 neuraminidase): inhibit neuraminidase activity | visible cytopathic effects (Influenza A H1N1 virus): 10 uM of both inhibited the formation of visible cytopathic effects, with IC50 values lower than Oseltamivir | NO, iNOS, NF-κB, MMP-9 [15]: Inhibit NO production, iNOS, NF-κB, and MMP-9 expressions, and LPS-induced ERK, JNK, and p38 phosphorylation

C=C(CC[C@@H](C(=O)O)[C@H]1C[C@H](O)[C@@]2(C)C3=C(CC[C@]12C)[C@@]1(C)CC[C@H](O)C(C)(C)[C@@H]1CC3)C(C)C [Sulphurenic acid]
insulin and HbA1c [16]: Rise of insulin levels and reduction in the concentration of glycated hemoglobin (HbA1c) | PPAR-α expression in the liver [17]: Increased expression of PPAR-α in the liver which facilitated fatty acid oxidation and the reduction of lipid levels

Melanin
increase in viability of liver cells intoxicated with d-galactosamine (Chang liver cells): 2–2.5 times | liver damage findings [18]: Decrease in fat buildup, steatosis, necrosis
